Test results: publication PMC11245370, “3-Position Biaryl Endochin-like Quinolones with Enhanced Antimalarial Performance” (ACS Infectious Diseases, 2024)
Read-outs that look alike come from different tables or passages of the source.

Legend:
[1] = system: P. falciparum atovaquone-resistant clinical isolate Tm90-C2B; experiment: SYBR Green I antiplasmodial assay, Tm90-C2B; format: cell-based; settings: Plasmodium falciparum, read-out: P. falciparum IC50 values, Tm90-C2B
Procedure: (§1) All of this information is stored in a database with information relating to chemical structure, physical chemical properties, cross resistance patterns, mammalian cell cytotoxicity, enzyme inhibitor profiles, and synthesis details. Pharmacological data and in vivo efficacy data are also stored in the database for molecules of particular interest. […] We synthesized the compound in an initial batch size of about 800 mg as described above. […] Fluorescence readings were captured with a fluorescence plate reader and processed by nonlinear regression analysis using the GraphPad Prism software to provide IC50 values for each determination. Stock solutions were freshly prepared daily in DMSO in glass vials.
(§2) Laboratory strains of P. falciparum were cultured in human erythrocytes by standard methods. The parasites were grown in culture medium with fresh human erythrocytes maintained at 2% hematocrit at 37 °C in low-oxygen conditions (5% O2, 5% CO2, 90% N2). […] Cultures were maintained at less than 10% parasitemia by transfer of infected cells to fresh erythrocytes and culture medium every 3 or 4 days.
(§3) SYBR green I assay. In vitro antiplasmodial activity was assessed using a published SYBR Green I fluorescence-based method.[20] The drugs were added to 96-well plates using twofold serial dilutions in complete medium. […] Asynchronous P. falciparum parasites were diluted with uninfected erythrocytes and added to the wells to give a final culture volume of 100 μL at 2% hematocrit and 0.2% parasitemia. […] The parasites were then lysed by adding 100 μL of SYBR green I lysis buffer containing 0.2 μL/ml SYBR green I dye (10,000×) in 20 mM Tris (pH 7.5), 5 mM EDTA, 0.008% (wt/vol) saponin, and 0.08% (v/v) Triton X-100. The plates were incubated at room temperature for an hour in the dark. […] If the IC50 value fell outside of the initially tested range, then the range was adjusted up or down, and the assay was repeated twice.

[2] = system: P. yoelii blood-stage infection; experiment: Single-dose cure of blood-stage murine malaria; format: in vivo, Plasmodium yoelii; settings: lowest single oral dose curing all four mice, day 30
Procedure: (§4) On day 5, a drop of blood was taken from the tail, and a blood smear was prepared, fixed with methanol, and stained with Giemsa. The operator then examined the stained smear microscopically to determine percent parasitemia. […] In this model, animals were inoculated exactly as for the 4 day test on day 0; however, drug was administered only on day 1, whereas smears were made on day 5 and again weekly thereafter for animals that remained aparasitemic. Animals that remained aparasitemic on day 30 were scored as cures.
The effectiveness of selected 3-biaryl ELQs and prodrugs was assessed vs the blood-stage infection for single-dose cures. Mice were infected iv with 3.5 × 10^4P. yoelii infected RBCs as described for the 4 day test above. Drug administration occurred on the day after inoculation (day 1). Test agents were dissolved in PEG-400 and administered ig once. On the fifth day, blood films were prepared, and % parasitemia was assessed. Animals remaining parasite-free for 30 days after drug administration were considered cured. The initial dosing range was 0.25, 0.5, 1, 3, and 10 mg/kg, including a control. Experiments were performed with four mice per group to ensure statistical accuracy. The reported parameter for these studies is the lowest single dose that provides a cure to all four animals in the group.

[3] = system: P. falciparum ELQ-300-resistant D1 clone; experiment: microbe, parasite or virus in culture; format: cell-based; settings: Plasmodium falciparum, 72 h, read-out: P. falciparum IC50 values, D1
[4] = target: T1, human liver cytochrome bc1 complex (Homo sapiens, UniProt P00156); set-up: method as in Nilsen et al., 2013; settings: ref Nilsen et al., 2013; cited from earlier work
[5] = system: P. yoelii blood-stage infection; settings: mice; for blood stage in vivo efficacy, 4 day Peters test results, NRD (nonrecrudescence dose): oral gavage days 1-4, followed to day 30; for blood stage in vivo efficacy, 4 day Peters test results, ED50 / blood stage in vivo efficacy, 4 day Peters test results, ED90: oral gavage days 1-4, parasitemia day 5, prodrugs dosed on molar equivalency to parent
Procedure: as §4
The P. yoelii 4 day test monitors suppression of patent infection in female CF1 mice. The test began with the inoculation (iv) of parasitized erythrocytes (3.5 × 10^4P. yoelli) (from a donor animal) on the first day of the experiment (D0). […] Initially, the 3-biaryl-ELQs were tested at doses of 0.0025, 0.005, 0.01, 0.03, 0.1, 0.3, 1.0, and 10 mg/kg/day, including a vehicle-only (PEG400) control. After completion of drug treatment, a blood sample was collected (by pricking the tail vein) for determination of parasite burden beginning on the day after the final dose (D5). Percent parasitemia was assessed by direct microscopic analysis of Giemsa-stained blood smears. […] Animals with observable parasitemia following the experiment were euthanized; animals cleared of parasites from the bloodstream were observed daily with assessment of parasitemia performed weekly until day 30, at which point the animals were scored as cured of infection. […] Nonlinear regression analysis was used for objective determination of ED50’s and ED90’s from the accumulated data as well as the nonrecrudescence dose (NRD). The 4 day test protocol was reviewed and approved by the local IACUC board at the Portland VA Medical Center. Experiments were performed with four mice per group to ensure statistical accuracy.

[6] = system: P. falciparum drug-sensitive D6 strain; experiment: SYBR Green I antiplasmodial assay, D6 strain; format: cell-based; settings: Plasmodium falciparum, read-out: P. falciparum IC50 values, D6
Procedure: as §1, §2, §3

[7] = system: P. falciparum multidrug-resistant Dd2 strain; experiment: microbe, parasite or virus in culture; format: cell-based; settings: Plasmodium falciparum, DD2, 72 h, read-out: P. falciparum IC50 values, Dd2
Procedure: as §1, §2, §3

[8] = HepG2 cytotoxicity / mitochondrial toxicity (TiterGlo ATP, galactose medium); settings: human
Procedure: HepG2 was routinely cultured in DMEM containing 10% fetal calf serum and 100 IU/mL penicillin and 100 μg/mL streptomycin (complete medium). For studies to investigate the potential for mitochondrial toxicity by selected 3-biaryl-ELQs, the medium contained galactose rather than glucose to force the cells to produce ATP through oxidative phosphorylation, which in turn makes them sensitive to mitochondrial toxicants.[36] […] After this period, the culture medium was removed, and the cells were shifted to galactose-containing medium with test drugs at concentrations ranging from 0 to 10 μM. Drug dilutions were prepared from DMSO stocks into galactose-containing medium. […] After incubation, the contents of each well were removed, and 25 μL of TiterGlo II reagent mix containing luciferase, detergent, and luciferin was added to each well along with 25 μL of culture medium. […] At this point, the plates were read on a luminometer (SpectraMax iD3 iD5Multi-Mode Microplate Reader), and the data were processed to yield the percent decrease in ATP production relative to no-drug control values. These values reflect the potential damage caused by mitochondrial toxicants due to reduced intracellular ATP levels caused by interference with the human mitochondrial electron transport chain. Assays were set up in triplicate.

[9] = ELQ-300, active metabolite of ELQ-331; comparison value, no reference given; cited from earlier work
[10] = Metabolic stability in liver microsomes, rat; format: in vitro ADME; settings: rat, pH 7.4
[11] = Pharmacokinetics after single dose of ELQ-598; format: in vivo; settings: for k el: CD1, in vivo; for k el / Tmax / AUC(0-inf) / Cmax / half-life: mouse plasma; for AUC(0-inf) / Cmax / half-life: CD1
Procedure: Animals had free access to food and water during the study. Following drug administration, the animals were manually restrained at the designated time points, and 100 μL of blood was withdrawn from the facial vein for semiserial sampling into heparinized tubes. Blood samples were placed on ice and centrifuged (2000g, 5 min, 4 °C) to obtain plasma. The plasma was mixed with 10% formic acid (FA) in water [plasma/10% FA (v/v = 10:1)]. […] At the outset of the study, 18 animals were randomly separated into two different groups (po and iv) of nine animals each. Blood samples were taken from three animals at each time point such that the same group of the animals was sampled at […] throughout the experiment for both po and iv arms. […] Dichlofenac was used as an internal standard.
MW is the molecular weight. The terminal elimination rate constant kel was estimated by linear least-squares regression analysis of the terminal log-linear portion of the plasma concentration–time curves by the software.

[12] = Metabolic stability in liver microsomes, mouse; format: in vitro ADME; settings: pooled mouse liver microsomes, pH 7.4; mouse liver microsomes 0.5 mg/mL, NADPH, 37 °C, 45 min, 1 μM
Procedure: (§5) […]. Samples were taken over the interval of 45 min and analyzed by LC–MS/MS for the presence of test compound. Ketanserin served as an internal standard for the metabolic rate of a drug with known intermediate stability. […].
(§6) The drug was incubated at 37 °C and 1 μM concentration in murine liver microsomes (Corning) for 45 min at a protein concentration of 0.5 mg/mL in potassium phosphate buffer at pH 7.4 containing 1.0 mM EDTA. The metabolic reaction was initiated by addition of NADPH and quenched with ice-cold acetonitrile at 0, 5, 15, 25, and 45 min.

[13] = Metabolic stability in liver microsomes, human; format: in vitro ADME; settings: human, pH 7.4
Procedure: as §5, §6

[14] = target: T1, human liver cytochrome bc1 complex; experiment: Human cytochrome bc1 assay (liver mitochondrial preparation)
Procedure: All use of human tissue was approved by the OHSU IRB. Approximately 10 g of human liver tissue was obtained intraoperatively and placed in ice-cold PBS containing 5 mM glucose. [Note: The specimen was obtained from grossly normal tissue that was resected around the margins of a tumor as part of the standard surgical treatment for hepatic tumors.] Liver was homogenized using a razor blade followed by a Dounce homogenizer. HALT Protease Inhibitor Cocktail (Pierce) was added per the manufacturer’s instructions. A crude mitochondrial fraction was prepared by differential centrifugation as described in Renault et al.[35] The final pellet was resuspended in storage buffer (50 mM tricine, 100 mM KCl, 2 mM NaN, 2.0% dodecyl-beta-D-maltoside, 30% glycerol, pH 8.0). Aliquots of this mitochondrial preparation were frozen in a dry ice–ethanol bath and stored at −80 °C until use.
Two microliters of mitochondrial preparation was resuspended in the assay buffer (50 mM tricine, 100 mM KCl, 2 mM NaN3, 0.1% dodecyl-beta-D-maltoside). […] Antimycin A was dissolved in ethanol as a 1 mM stock. Decylubiquinone was reduced to decylubiquinol with an excess of NaBH4, and the excess NaBH4 was subsequently quenched with hydrochloric acid. […] The rate of the nonenzymatic reaction of cytochrome c and decylubiquinol was measured separately in the absence of mitochondrial preparation and found to be insignificant. […]

[15] = system: P. falciparum atovaquone-resistant clinical isolate Tm90-C2B; settings: earlier work of the authors, no reference given; cited from earlier work
[16] = earlier work of the authors, no reference given; cited from earlier work
[17] = system: P. falciparum multidrug-resistant Dd2 strain; settings: earlier work of the authors, no reference given; cited from earlier work
[18] = system: P. falciparum drug-sensitive D6 strain; settings: earlier work of the authors, no reference given; cited from earlier work
[19] = male, single ELQ-598 dose 0.3 mg/kg IV
[20] = male, single ELQ-598 dose 10 mg/kg PO (PEG400)
[21] = male, single ELQ-598 dose 10 mg/kg PO
[22] = mouse, single ELQ-598 dose 0.3 mg/kg IV

O=C1C(O)=C([C@H]2CC[C@H](c3ccc(Cl)cc3)CC2)C(=O)c2ccccc21 [Atovaquone, reference compound]
IC50 ([1]; TM90, 72 h, SYBR Green, mean (95% confidence interval of fit)): > 1000 nM
blood stage in vivo efficacy, single dose cure [2]: 10 mg/kg/day
IC50 [3]: 0.4 nM
EC50 [4]: 460 nM
blood stage in vivo efficacy, 4 day Peters test results, NRD (nonrecrudescence dose) [5]: 10 mg/kg/day
blood stage in vivo efficacy, 4 day Peters test results, ED50 [5]: 0.1 mg/kg/day
IC50 ([6]; D6, 72 h, SYBR Green, mean (95% confidence interval of fit)): 0.08 nM
IC50 [7]: 0.4 nM

COc1cc2[nH]c(C)c(-c3ccc(Oc4ccc(OC(F)(F)F)cc4)cc3)c(=O)c2cc1Cl [ELQ-300]
IC50 ([1]; TM90, 72 h): 2.5 nM
blood stage in vivo efficacy, single dose cure [2]: >25 mg/kg/day
IC50 at 24 h ([8]; HepG2 cells): > 10000 nM
EC50 [4]: > 10000 nM
elimination T1/2 [9]: 14.6 h
blood stage in vivo efficacy, 4 day Peters test results, NRD (nonrecrudescence dose) [5]: 1.0 mg/kg/day
blood stage in vivo efficacy, 4 day Peters test results, ED50 [5]: 0.02 mg/kg/day
blood stage in vivo efficacy, 4 day Peters test results, ED90 [5]: 0.06 mg/kg/day
IC50 ([6]; D6, 72 h): 3.3 nM
IC50 [7]: 4.2 nM

COc1cc2[nH]c(C)c(-c3ccc(-c4ccc(OC(F)(F)F)cc4)cc3)c(=O)c2cc1Cl [ELQ-596, 6-Chloro-7-methoxy-2-methyl-3-(4′-(trifluoromethoxy)-[1,1′-biphenyl]-4-yl)quinolin-4(1H)-one]
half-life at 1 μM [10]: > 66.7 h
IC50 ([1]; TM90, 72 h): 0.7 nM
EC50 at 24 h [8]: > 10000 nM
IC50 at 24 h [8]: > 10000 nM
k el [11, 19]: 6.94e-06 s⁻¹
k el [11, 20]: 4.17e-06 s⁻¹
Tmax ([11]; male, CD1, mouse, plasma, iv, 0.3 mg/kg, single ELQ-598 dose 0.3 mg/kg IV, read-out: Tmax): 4 h
Tmax ([11]; male, CD1, mouse, plasma, po, 10 mg/kg, single ELQ-598 dose 10 mg/kg PO (PEG400), read-out: Tmax): 4 h
bioavailability ([11]; male, CD1, mouse, plasma, po, 10 mg/kg, read-out: F (oral bioavailability)): 73%
Vd ([11]; male, CD1, plasma, mouse, single ELQ-598 dose 0.3 mg/kg IV, read-out: Vdss): 0.78 L/kg
CL/F ([11]; male, CD1, plasma, mouse, single ELQ-598 dose 10 mg/kg PO, read-out: CL/F (converted)): 0.283 mL/min/kg
AUC(0-inf) [11, 19]: 12.2 µg·h/mL
Cmax [11, 19]: 303 ng/mL
half-life ([11]; male, single ELQ-598 dose 0.3 mg/kg IV, elimination): 27.4 h
AUC(0-inf) [11, 21]: 484 µg·h/mL
Cmax [11, 21]: 14.5 µM
Cmax [11, 20]: 6680 ng/mL
half-life ([11]; male, single ELQ-598 dose 10 mg/kg PO, apparent elimination): 45.7 h
Tmax ([11]; single ELQ-598 dose 0.3 mg/kg IV, 0.3 mg/kg): 2 h
CL/F [11, 22]: 0.333 mL/min/kg
Vdarea/F [11, 22]: 0.81 L/kg
Vdarea/F ([11]; mouse, single ELQ-598 dose 10 mg/kg PO): 1.11 L/kg
blood stage in vivo efficacy, 4 day Peters test results, NRD (nonrecrudescence dose) [5]: 0.3 mg/kg/day
blood stage in vivo efficacy, 4 day Peters test results, ED50 [5]: 0.01 mg/kg/day
blood stage in vivo efficacy, 4 day Peters test results, ED90 [5]: 0.021 mg/kg/day
half-life at 1 μM [12]: > 66.7 h
IC50 ([6]; D6, 72 h): 1.4 nM
IC50 [7]: 1.6 nM
half-life at 1 μM [13]: > 66.7 h
EC50 [14]: > 10000 nM

COc1cc2[nH]c(C)c(-c3ccc(Oc4cccc(OC(F)(F)F)c4)cc3)c(=O)c2cc1Cl [ELQ-307]
IC50 [15]: ≤ 0.03 nM
metabolic stability [16]: metabolically unstable
IC50 [17]: ≤ 0.03 nM
IC50 [18]: ≤ 0.03 nM
